From publication PMC12498136, “Synthesis and biological evaluation of novel carnosic acid derivatives with anticancer activity” (RSC Advances, 2025)

Key:
Assay type in all cases: cell-based
SW480 cells [1] = experiment: MTT cell viability assay in SW480 cells
Procedure: (§1) The MTT assay was used to assess the effect of the compounds on cell viability. For this purpose, A375 (1500 cells per well), BJ (10 000 cells per well), Caco-2 (4000 cells per well), HCT116 (3000 cells per well), Mia Paca-2 (2000 cells per well), SW480 (6000 cells per well), and SW620 (8000 cells per well) cells were seeded in 96-well plates and incubated for 24 h. Subsequently, the culture medium was switched with a new medium containing DMSO (control) or the compound at a specified concentration. Following a 72 h incubation period, the supernatant was aspirated, and 100 μL of a mixture (1 : 1) of filtered MTT solution (1 mg per mL PBS) and FBS-free medium was added. The plates were then incubated for 1 h at 37 °C. After this time, the supernatant was aspirated, and the formazan crystals were dissolved in 100 μL of DMSO in each well. Relative cell viability was calculated by measuring absorbance at 570 nm using a Benchmark Plus Microplate Reader (Bio-Rad Laboratories, Hercules, CA, USA). Results are presented as the mean ± standard deviation (SD) of IC50 values, determined by nonlinear regression analysis of dose–response curves (log(inhibitor) vs. response with variable slope (four parameters)) using GraphPad Prism 9 software (GraphPad Software, San Diego, CA, USA).

SW620 cells = experiment: MTT cell viability assay in SW620 cells; conditions: Homo sapiens, SW-620, 72 h, read-out: IC50 SW620
Procedure: as §1

Caco-2 cells = experiment: MTT cell viability assay in Caco-2 cells; conditions: Homo sapiens, Caco-2, 72 h, read-out: IC50 Caco-2
Procedure: as §1

BJ cells = experiment: MTT cell viability assay in non-tumoral BJ fibroblasts
Procedure: as §1

SW480 cells [2] = experiment: Cell cycle assay (PI, flow cytometry)
Procedure: To validate this hypothesis, compound 17 was administered at 6.3 μM to SW480 cells and incubated for 24, 48, and 72 h. Following each incubation period, the cells were fixed and permeabilized with 70% cold ethanol and stained with PI before flow cytometry analysis. At 24 h, compound 17 caused cell cycle arrest at the G0/G1 phase, as evidenced by a significant increase in the percentage of SW480 cells, from 54% in the control group to 66% in the treated group (Fig. 6). […] At 72 h, compound 17 had no impact on the cell cycle of SW480 cells, as observed in Fig. 6.
SW480 cells were seeded, treated, incubated, and collected, as described for the apoptosis assay. After centrifugation, the cells were resuspended in 500 μL DPBS, added dropwise to 4.5 mL of 70% (v/v) cold ethanol, and stored at −20 °C for at least 4 h. Each cell suspension was centrifuged, washed with cold DPBS, and resuspended in 350 μL DPBS and 10 μL RNase (10 mg mL^−1). After 1 h of incubation at 37 °C with agitation, the cells were stained with 20 μL of PI solution (1 mg mL^−1). A Gallios flow cytometer (Beckman Coulter, Brea, CA, USA) at a wavelength of 488 nm was used for FACS analysis. Data from 1 × 10^4 cells were collected, and a multicycle software (Phoenix Flow Systems, San Diego, CA, USA) was used for cell cycle analysis.

CDK4 = experiment: Western blot of CDK4 levels in SW480 cells; conditions: SW480, 6.3 μM, relative to control
Procedure: (§2) SW480 cells were seeded in 6-well plates and treated as described in the previous subsection. After 24, 48 or 72 h of incubation, adherent cells were washed twice with ice-cold DPBS and incubated with lysis buffer (0.2% Triton X-100, 0.5 mM sodium deoxycholate, 1 mM Na-EDTA, 1 mM DTT, 20 mM Tris–HCl (pH 7.5), 0.5% phosphatases inhibitor cocktail, and 1% proteases inhibitor cocktail) for 30 min at 4 °C. The cells were scraped, sonicated, and centrifuged at 120 00 × g (20 min at 4 °C). […] The gels were then transferred to PVDF membranes, which were blocked with 5% skim milk in PBS-Tween-20 (0.1%) for 1 h at room temperature. Subsequently, the membranes were incubated with the primary antibodies for 30 mi at room temperature (actin) or overnight at 4 °C (CDK4, CDK6, cyclin A, Rb and SOD2/MnSOD). After incubation, the membranes were washed with PBS-Tween-20 (0.1%) and incubated with anti-mouse secondary antibody (40 min) or anti-rabbit secondary antibody (1 h) at room temperature. Finally, the membranes were washed with PBS-Tween-20 (0.1%) and treated with the Immobilon Western Chemiluminescent HRP Substrate Kit, and autoradiography was performed using an FPM-100A film processor (Fujifilm, Tokyo, Japan). western blot results were obtained from three independent experiments, except for cyclin A at 24 h (n = 2), Rb protein at 24 and 72 h (n = 2), and SOD2 (MnSOD) at 72 h (n = 2).

Rb = experiment: Western blot of Rb levels in SW480 cells; conditions: SW480, 6.3 μM, 24, 48, and 72 h, relative to control
Procedure: as §2

SOD2/MnSOD = experiment: Western blot of SOD2/MnSOD levels in SW480 cells; conditions: SW480, 6.3 μM, 24 and 72 h, relative to control
Procedure: as §2

[3] = SW480 cells, ratio of IC50 values

CC(=O)Oc1c(C(C)C)cc2c(c1OC(C)=O)[C@@]1(NC(=O)OCC(C)C)CCCC(C)(C)[C@@H]1CC2 [Compound 17, (4bR,8aS)-8,8-Dimethyl-4b-{[(2-methylpropoxy)carbonyl]amino}-2-(propan-2-yl)-4b,5,6,7,8,8a,9,10-octahydrophenanthrene-3,4-diyl diacetate]
IC50 (SW480 cells [1]; Homo sapiens, SW480, 72 h, read-out: IC50 SW480): 6.3 ± 0.5 µM | fold more active than cisplatin (SW480 cells [1]; [3]): 2.4 fold | fold more potent than CA 1 (SW480 cells [1]; [3]): 3.5 fold | IC50 (SW620 cells): 10 ± 1 µM | IC50 (Caco-2 cells): 16 ± 2 µM | times less potent in BJ cells than in cancer cell lines (selectivity) (BJ cells; BJ vs cancer cell lines): 3–8 times | IC50 (BJ cells; Homo sapiens, BJ, MTT assay, 72 h incubation): > 50 µM | percentage of SW480 cells in G0/G1 phase (SW480 cells [2]; 6.3 μM, 24 h (control 54%)): 66% | percentage of SW480 cells in S phase (SW480 cells [2]; 6.3 μM, 48 h (control 30%)): 40% | effect on the cell cycle (SW480 cells [2]; SW480, 6.3 μM, 72 h): no impact | CDK4 protein level (CDK4; 24 h): significantly reduced | CDK4 protein level (CDK4; 48 h): lower than those in the control group | CDK4 protein level (CDK4; 72 h): reduction | Rb protein level (Rb): notable decrease | expression of SOD2/MnSOD (SOD2/MnSOD): significantly increased
